Results taken from ChEMBL document CHEMBL4699484, “Discovery of small molecule FLT3 inhibitors that are able to overcome drug-resistant mutations” (Bioorg Med Chem Lett, 2020).

What was measured:
BaF3 = assay: cells; settings: Mus musculus
Description: Cytotoxicity against mouse BaF3 cells assessed as reduction in cell viability

[1] = molecular target: T1, Receptor-type tyrosine-protein kinase FLT3 (Homo sapiens, UniProt P36888, ITD); type: cell-based, BaF3
Description: Inhibition of FLT3 ITD mutant (unknown origin) expressed in mouse BaF3 cells

[2] = molecular target: Receptor-type tyrosine-protein kinase FLT3 (Homo sapiens, UniProt P36888, D835Y/ITD); type: cell-based, BaF3
Description: Inhibition of FLT3 ITD/D835Y double mutant (unknown origin) expressed in mouse BaF3 cells

[3] = molecular target: Receptor-type tyrosine-protein kinase FLT3 (Homo sapiens, UniProt P36888, F691L/ITD); type: cell-based, BaF3
Description: Inhibition of FLT3 ITD/F691L double mutant (unknown origin) expressed in mouse BaF3 cells

STF3A = assay: (§1) Inhibition of Wnt/beta-Catenin signaling (unknown origin) expressed in STF3a cells incubated for 24 hrs by STF luciferase reporter gene assay; type: cell-based; settings: Homo sapiens
[4] = as §1; type: cell-based; settings: Homo sapiens
[5] = molecular target: T1, Receptor-type tyrosine-protein kinase FLT3; assay: Inhibition of human partial length FLT3 ITD mutant expressed in bacterial expression system by Kinomescan method

| SMILES | IC50 (BaF3) [nM] | IC50 [1] [nM] | IC50 [2] [nM] | IC50 [3] [nM] | IC50 [4] [nM] | inhibition (STF3A) | IC50 [5] [nM] |
| --- | --- | --- | --- | --- | --- | --- | --- |
| CC(C)(C)c1cc(NC(=O)Nc2ccc(Oc3ccnc4[nH]ccc34)c(F)c2)no1 | > 10000 | 141 | 741 | 1020 |  |  |  |
| CC(C)(C)c1cc(NC(=O)Nc2ccc(Oc3ccnc4[nH]ncc34)c(F)c2)no1 | 2620 | 0.292 | 34.3 | 35 |  |  |  |
| CC(C)(C)c1cc(NC(=O)Nc2ccc(Oc3ccnc4nc[nH]c34)c(F)c2)no1 | 2080 | 0.015 | 12.4 | 18.6 |  |  |  |
| COc1cc2c(Oc3ccc(NC(=O)Nc4cc(C(C)(C)C)on4)cc3F)ncnc2cn1 | 3040 | 1.2 | 64.2 | 1020 |  |  |  |
| COc1cc2nccc(Oc3ccc(NC(=O)Nc4cc(C(C)(C)C)on4)cc3F)c2cc1OC | 1210 | 0.072 | 3.48 | 5.86 | < 500 | Dose-dependent effect |  |
| COc1cc2ncnc(Oc3ccc(NC(=O)Nc4cc(C(C)(C)C)on4)cc3F)c2cc1OC | > 1990 | 1.51 | 7.93 | 13.8 |  |  |  |
| COc1cc2nccc(Oc3ccc(NC(=O)Nc4cc(C(C)(C)C)on4)cc3F)c2cc1OC(C)C | 2030 | 6.88 | 10.6 | 23.1 |  |  |  |
| CC(C)(C)c1cc(NC(=O)Nc2ccc(Oc3ncnc4[nH]ncc34)c(F)c2)no1 | 3160 | 0.038 | 130 | 108 |  |  | 1.3 |
| COc1cc2c(Oc3ccc(NC(=O)Nc4cc(C(C)(C)C)on4)cc3F)ccnc2cc1OCC(C)C | 4820 | 36.5 | 62.4 | 127 |  |  |  |
| CC(C)(C)c1cc(NC(=O)Nc2ccc(Oc3ccnc4cc(OCC5CCCC5)c(OCC5CCCC5)cc34)c(F)c2)no1 | 6500 | 37.2 | 27.9 | 38.9 |  |  |  |
| CCOc1cc2nccc(Oc3ccc(NC(=O)Nc4cc(C(C)(C)C)on4)cc3F)c2cc1OCC | 3140 | 3.08 | 15.5 | 32.6 |  |  |  |
| COCCOc1cc2nccc(Oc3ccc(NC(=O)Nc4cc(C(C)(C)C)on4)cc3F)c2cc1OCCOC | 2000 | 5.17 | 11 | 16 |  |  |  |
| COc1cc2c(Oc3ccc(NC(=O)Nc4cc(C(C)(C)C)on4)cc3F)ccnc2cc1OCC1CCCC1 | 5560 | 66.5 | 104 | 189 |  |  |  |
| CC(C)(C)c1cc(NC(=O)Nc2ccc(Oc3nccc4ccccc34)c(F)c2)no1 | > 10000 | 1260 | > 10000 | > 10000 |  |  |  |

The next lines start with results.

| IC50 (BaF3) [nM] | IC50 [1] [nM] | IC50 [2] [nM] | IC50 [3] [nM] | IC50 [4] [nM] | SMILES | inhibition (STF3A) | IC50 [5] [nM] |
| --- | --- | --- | --- | --- | --- | --- | --- |
| 4940 | 19.2 | 14.9 | 54.3 |  | CCCOc1cc2nccc(Oc3ccc(NC(=O)Nc4cc(C(C)(C)C)on4)cc3F)c2cc1OC |  |  |
| 1650 | 5.2 | 5.96 | 8.31 |  | CCOc1cc2nccc(Oc3ccc(NC(=O)Nc4cc(C(C)(C)C)on4)cc3F)c2cc1OC |  |  |
| 2880 | 7.25 | 10.9 | 29.9 |  | CCOc1cc2c(Oc3ccc(NC(=O)Nc4cc(C(C)(C)C)on4)cc3F)ccnc2cc1OC |  |  |
| 1840 | 5.77 | 6.28 | 16.8 |  | COc1cc2nccc(Oc3ccc(NC(=O)Nc4cc(C(C)(C)C)on4)cc3F)c2cc1OCCCN1CCOCC1 |  |  |
| 9200 | 2650 | 3540 | 5270 |  | COc1cc2c(Oc3ccc(NC(=O)Nc4cc(C(C)(C)C)on4)cc3F)ccnc2cc1OCC1CO1 (stereo not given) |  |  |
| 1130 | 4.73 | 5.35 | 11.9 |  | COCCOc1cc2nccc(Oc3ccc(NC(=O)Nc4cc(C(C)(C)C)on4)cc3F)c2cc1OC |  |  |
| 7770 | 76.1 | 160 | 296 |  | CCCOc1cc2c(Oc3ccc(NC(=O)Nc4cc(C(C)(C)C)on4)cc3F)ccnc2cc1OC |  |  |
| 3000 | 4.91 | 10.1 | 20.8 |  | COCCOc1cc2c(Oc3ccc(NC(=O)Nc4cc(C(C)(C)C)on4)cc3F)ccnc2cc1OC |  |  |
| 1100 | 3.22 | 5.09 | 9.93 |  | COc1cc2c(Oc3ccc(NC(=O)Nc4cc(C(C)(C)C)on4)cc3F)ccnc2cc1OCCCN1CCOCC1 |  |  |
